Results reported in ChEMBL document CHEMBL1201862, “PubChem BioAssay data set” (2004).
Activity calls are given as the source filed them.

Tests used:
[1] = Luminescence Cell-Based Dose Retest to Confirm Inhibitors of Cancer Stem Cells. [Related pubchem assays (depositor defined):AID2717, AID2721]; format: functional; conditions: Homo sapiens
[2] = biological target: T1, Heat shock factor protein 1 (Mus musculus, UniProt P38532); experiment: enhancement of HSF1-driven luciferase signal – cell-based, NIH3T3, luminescence, dose retest, confirmation (AID 435004); format: functional;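 also: stress induced by proteasome inhibitor MG132 added 30 min after compound; luciferase reporter driven by HSF1 response element in NIH3T3 cells; actives raise luminescence as potentiators of the MG132 stress response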
T1 sequence (P38532 whole entry): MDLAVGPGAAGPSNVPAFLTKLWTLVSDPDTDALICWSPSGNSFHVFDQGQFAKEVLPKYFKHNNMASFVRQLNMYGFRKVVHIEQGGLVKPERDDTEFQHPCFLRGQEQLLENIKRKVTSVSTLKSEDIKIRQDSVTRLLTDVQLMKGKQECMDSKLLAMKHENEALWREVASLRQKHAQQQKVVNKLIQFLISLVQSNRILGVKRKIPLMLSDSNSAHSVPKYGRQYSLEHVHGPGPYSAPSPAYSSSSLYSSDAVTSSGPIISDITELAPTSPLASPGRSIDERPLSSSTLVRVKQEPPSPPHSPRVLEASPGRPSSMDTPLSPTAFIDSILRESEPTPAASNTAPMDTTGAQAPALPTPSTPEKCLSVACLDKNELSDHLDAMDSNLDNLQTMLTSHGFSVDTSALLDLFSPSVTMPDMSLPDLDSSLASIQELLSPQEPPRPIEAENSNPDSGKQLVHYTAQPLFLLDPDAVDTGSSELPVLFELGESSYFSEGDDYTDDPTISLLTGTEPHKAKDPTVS

[3] = viability loss of HMLE_sh_eGFP cells – cell-based, luminescence, counter-screen for HMLE_sh_ECad selective toxicity project, dose response (AID 463074); format: functional, Homo sapiens;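 also: HMLE human mammary epithelial cells expressing control shRNA against eGFP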
[4] = system: Escherichia coli; experiment: microbe, parasite or virus in culture
[5] = biological target: Latent membrane protein 1 (Human herpesvirus 4 (strain B95-8), UniProt P03230); experiment: LMP1 TES1 pathway selectivity over dsRED control – imaging, HEK293T, dual-color eGFP/dsRED, cherry-picks, selectivity assay for LMP1 NF-kB inhibitor project, dose response (AID 588398); format: functional, cell-based
[6] = luciferase reporter signal suppression in cells – H4 neuroglioma cells, luminescence, dose response (AID 1990); format: functional, cell-based
[7] = Luminescence Cell-Based Dose Response HTS to Identify Inhibitors of 5'UTR Stem-Loop Driven Prion Protein mRNA Translation in H4 Neuroglioblastoma Cells. [Related pubchem assays: 1827 (Project Summary), 1813 (Primary HTS)]; format: functional
[8] = alpha-synuclein stem-loop luciferase translation blockers – H4 neuroglioma cells, luminescence, confirmation (AID 1988); format: functional, cell-based
[9] = microbe, parasite or virus in culture; format: functional; conditions: Mycobacterium tuberculosis
[10] = biological target: CAAX prenyl protease 2 (Homo sapiens, UniProt Q9Y256); experiment: inhibition of Ras-converting CAAX protease Rce1 – biochemical, yeast membranes, quenched-peptide fluorescence, cherry-pick, dose response (AID 588849)
[11] = system: BJ; experiment: BJ-TERT fibroblast viability loss – cell-based, RAS-independent, luminescence, dose response (AID 1933); format: functional; conditions: Homo sapiens
[12] = biological target: T1, Heat shock factor protein 1; experiment: decrease of HSF1-responsive luciferase luminescence – cell-based, NIH3T3, dose retest, confirmation (AID 2382); format: functional;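 also: NIH3T3 fibroblasts with HSF1-driven luciferase reporter stressed by proteasome inhibitor MG132; luminescence from HSF1-driven luciferase expression after 8 hours of MG132 stress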
[13] = system: BJ; experiment: cells; format: functional, cell-based; conditions: Homo sapiens
[14] = system: BJ; experiment: BJ-TERT-LT-ST fibroblast viability loss – cell-based, RAS-independent, luminescence, dose response (AID 1935); format: functional; conditions: Homo sapiens;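 also: BJ fibroblasts immortalized with TERT plus LT and ST oncogenes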
[15] = DRD fibroblast viability loss – cell-based, non-viral oncogenic, luminescence, dose response (AID 1934); format: functional; conditions: Homo sapiens
[16] = system: BJ; experiment: growth inhibition of engineered Ras-driven BJ cells – cell-based, alamar blue fluorescence, cherrypicked samples, dose response (AID 2631); format: functional; conditions: Homo sapiens;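 also: confirmatory dose-response assay in RAS-dependent BJ fibroblasts engineered with TERT, LT and ST, with cytotoxicity read by fluorescence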
[17] = biological target: T2, Protein skinhead-1 (Caenorhabditis elegans, UniProt P34707); format: functional
T2 sequence (P34707 whole entry): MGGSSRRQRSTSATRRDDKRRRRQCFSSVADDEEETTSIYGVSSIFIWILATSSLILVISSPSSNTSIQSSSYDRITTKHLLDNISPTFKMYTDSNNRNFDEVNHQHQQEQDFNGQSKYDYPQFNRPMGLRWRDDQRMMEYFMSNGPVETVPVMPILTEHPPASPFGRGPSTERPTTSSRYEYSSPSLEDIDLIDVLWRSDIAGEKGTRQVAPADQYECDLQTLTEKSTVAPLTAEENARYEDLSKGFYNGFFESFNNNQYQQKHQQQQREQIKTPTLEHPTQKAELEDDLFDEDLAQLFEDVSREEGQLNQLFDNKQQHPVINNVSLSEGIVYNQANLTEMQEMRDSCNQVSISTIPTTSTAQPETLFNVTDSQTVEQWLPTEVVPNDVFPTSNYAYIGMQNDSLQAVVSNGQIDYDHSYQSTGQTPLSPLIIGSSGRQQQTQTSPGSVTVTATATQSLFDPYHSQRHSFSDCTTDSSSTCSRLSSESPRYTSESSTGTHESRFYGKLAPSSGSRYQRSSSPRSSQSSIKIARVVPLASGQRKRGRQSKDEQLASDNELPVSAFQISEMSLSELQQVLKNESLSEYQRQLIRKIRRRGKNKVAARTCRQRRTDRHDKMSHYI

[18] = biological target: T3, fMet-Leu-Phe receptor (Homo sapiens, UniProt P21462); experiment: formyl peptide receptor binders – dose response (AID 519); format: functional
T3 sequence (P21462 whole entry): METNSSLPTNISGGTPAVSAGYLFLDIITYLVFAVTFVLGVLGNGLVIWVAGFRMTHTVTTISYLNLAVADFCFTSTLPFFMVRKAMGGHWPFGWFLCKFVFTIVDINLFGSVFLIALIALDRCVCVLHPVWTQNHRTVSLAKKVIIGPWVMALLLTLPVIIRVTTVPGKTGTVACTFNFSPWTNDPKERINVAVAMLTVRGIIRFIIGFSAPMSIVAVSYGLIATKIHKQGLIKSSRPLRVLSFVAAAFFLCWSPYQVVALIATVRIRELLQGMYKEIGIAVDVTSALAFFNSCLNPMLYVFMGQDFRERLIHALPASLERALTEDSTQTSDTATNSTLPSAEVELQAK

[19] = biological target: T4, Cytochrome P450 1A2 (Homo sapiens, UniProt P05177);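 also: PubChem cytochrome P450 panel assay, CYP1A2 panel member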
T4 sequence (P05177 whole entry): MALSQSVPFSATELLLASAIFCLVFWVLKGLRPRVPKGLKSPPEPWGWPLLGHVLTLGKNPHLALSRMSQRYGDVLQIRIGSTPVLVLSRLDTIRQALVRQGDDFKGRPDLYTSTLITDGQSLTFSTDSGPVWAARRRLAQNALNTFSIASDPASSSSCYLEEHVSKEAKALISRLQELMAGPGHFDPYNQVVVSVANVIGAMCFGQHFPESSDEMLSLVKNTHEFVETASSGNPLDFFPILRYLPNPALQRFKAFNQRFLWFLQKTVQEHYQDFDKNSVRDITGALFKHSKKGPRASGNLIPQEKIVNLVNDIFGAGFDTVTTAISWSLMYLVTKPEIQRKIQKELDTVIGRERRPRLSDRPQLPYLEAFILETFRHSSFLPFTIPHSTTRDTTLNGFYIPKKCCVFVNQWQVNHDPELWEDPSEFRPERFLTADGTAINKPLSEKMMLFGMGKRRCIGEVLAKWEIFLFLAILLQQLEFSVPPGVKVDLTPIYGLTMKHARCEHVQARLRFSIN

[20] = biological target: Cytochrome P450 2D6 (Homo sapiens, UniProt P10635);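 also: CYP2D6 member of a cytochrome P450 panel assay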
[21] = biological target: Phospholipase D1 (Homo sapiens, UniProt Q13393); experiment: cellular phospholipase D1 inhibition IC50 – cell-based, dose response (AID 602151); format: functional;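 also: cellular PLD1 assay in Calu-1 cells stimulated with PMA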
[22] = biological target: Phospholipase D2 (Homo sapiens, UniProt O14939); experiment: cellular phospholipase D2 inhibition IC50 – cell-based, dose response (AID 602147); format: functional;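 also: cellular assay in HEK293 cells overexpressing GFP-tagged PLD2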
[23] = biological target: Nonstructural protein 1 (Influenza A virus, UniProt Q194T2); format: functional, Influenza A virus (A/California/07/2009(H1N1))
Nonstructural protein 1, sequence (Q194T2 whole entry): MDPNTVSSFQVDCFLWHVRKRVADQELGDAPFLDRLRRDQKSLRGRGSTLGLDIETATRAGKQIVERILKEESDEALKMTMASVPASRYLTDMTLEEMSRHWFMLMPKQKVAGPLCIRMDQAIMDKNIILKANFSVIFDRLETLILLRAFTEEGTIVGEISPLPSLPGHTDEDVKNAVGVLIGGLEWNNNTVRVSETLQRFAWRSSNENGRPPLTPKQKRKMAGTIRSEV

Phospholipase D2, sequence (O14939 whole entry): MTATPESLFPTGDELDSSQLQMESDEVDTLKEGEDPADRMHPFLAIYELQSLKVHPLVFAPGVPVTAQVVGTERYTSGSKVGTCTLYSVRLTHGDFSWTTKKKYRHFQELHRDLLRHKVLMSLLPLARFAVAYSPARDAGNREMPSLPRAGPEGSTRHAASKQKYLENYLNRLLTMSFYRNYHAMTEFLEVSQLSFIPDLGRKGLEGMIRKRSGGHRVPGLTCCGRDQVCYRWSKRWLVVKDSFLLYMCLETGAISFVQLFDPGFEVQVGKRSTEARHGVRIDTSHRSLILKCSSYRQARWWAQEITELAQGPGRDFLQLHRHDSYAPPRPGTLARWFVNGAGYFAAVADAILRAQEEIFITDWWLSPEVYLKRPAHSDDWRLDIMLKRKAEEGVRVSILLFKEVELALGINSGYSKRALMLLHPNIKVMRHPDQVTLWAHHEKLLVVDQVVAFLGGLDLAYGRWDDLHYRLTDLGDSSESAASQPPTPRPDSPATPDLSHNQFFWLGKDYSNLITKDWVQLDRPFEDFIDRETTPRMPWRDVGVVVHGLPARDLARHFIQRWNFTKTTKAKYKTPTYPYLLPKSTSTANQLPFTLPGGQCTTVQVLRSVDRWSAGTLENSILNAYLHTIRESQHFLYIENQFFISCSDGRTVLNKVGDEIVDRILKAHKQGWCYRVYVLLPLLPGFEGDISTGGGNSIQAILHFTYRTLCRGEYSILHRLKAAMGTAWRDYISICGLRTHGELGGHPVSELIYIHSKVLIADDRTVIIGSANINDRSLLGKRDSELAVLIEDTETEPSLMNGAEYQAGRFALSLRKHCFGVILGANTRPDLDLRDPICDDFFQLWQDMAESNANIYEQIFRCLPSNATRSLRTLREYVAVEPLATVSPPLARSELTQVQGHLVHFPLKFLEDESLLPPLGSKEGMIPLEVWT
Phospholipase D1, sequence (Q13393 whole entry): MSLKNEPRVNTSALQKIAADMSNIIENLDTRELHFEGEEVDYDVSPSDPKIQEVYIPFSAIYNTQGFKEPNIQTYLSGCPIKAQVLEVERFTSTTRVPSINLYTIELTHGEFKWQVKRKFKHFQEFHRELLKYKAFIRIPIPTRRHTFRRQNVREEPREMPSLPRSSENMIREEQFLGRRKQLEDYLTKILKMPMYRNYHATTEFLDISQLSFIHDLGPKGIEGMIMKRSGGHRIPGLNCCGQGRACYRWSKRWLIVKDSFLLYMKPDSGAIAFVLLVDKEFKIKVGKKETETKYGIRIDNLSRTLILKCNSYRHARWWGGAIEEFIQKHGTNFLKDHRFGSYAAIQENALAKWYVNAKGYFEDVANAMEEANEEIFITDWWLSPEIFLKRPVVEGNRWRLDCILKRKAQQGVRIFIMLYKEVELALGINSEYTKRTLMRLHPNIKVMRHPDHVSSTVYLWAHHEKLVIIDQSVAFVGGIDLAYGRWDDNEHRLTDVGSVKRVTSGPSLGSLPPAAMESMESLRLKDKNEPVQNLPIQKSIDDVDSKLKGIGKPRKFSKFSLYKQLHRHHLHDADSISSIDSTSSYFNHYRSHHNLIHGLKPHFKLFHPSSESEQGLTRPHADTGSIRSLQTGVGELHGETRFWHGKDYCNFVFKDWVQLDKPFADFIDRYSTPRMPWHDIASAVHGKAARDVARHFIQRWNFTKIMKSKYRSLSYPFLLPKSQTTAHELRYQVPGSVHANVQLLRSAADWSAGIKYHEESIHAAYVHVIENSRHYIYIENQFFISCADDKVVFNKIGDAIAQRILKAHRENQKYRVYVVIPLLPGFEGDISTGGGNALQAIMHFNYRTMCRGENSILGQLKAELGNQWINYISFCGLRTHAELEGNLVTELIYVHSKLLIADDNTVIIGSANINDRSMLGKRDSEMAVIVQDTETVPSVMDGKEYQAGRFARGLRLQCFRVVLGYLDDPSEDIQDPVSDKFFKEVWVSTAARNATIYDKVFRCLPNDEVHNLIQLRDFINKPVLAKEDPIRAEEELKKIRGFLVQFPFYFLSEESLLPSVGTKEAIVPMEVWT
Cytochrome P450 2D6, sequence (P10635 whole entry): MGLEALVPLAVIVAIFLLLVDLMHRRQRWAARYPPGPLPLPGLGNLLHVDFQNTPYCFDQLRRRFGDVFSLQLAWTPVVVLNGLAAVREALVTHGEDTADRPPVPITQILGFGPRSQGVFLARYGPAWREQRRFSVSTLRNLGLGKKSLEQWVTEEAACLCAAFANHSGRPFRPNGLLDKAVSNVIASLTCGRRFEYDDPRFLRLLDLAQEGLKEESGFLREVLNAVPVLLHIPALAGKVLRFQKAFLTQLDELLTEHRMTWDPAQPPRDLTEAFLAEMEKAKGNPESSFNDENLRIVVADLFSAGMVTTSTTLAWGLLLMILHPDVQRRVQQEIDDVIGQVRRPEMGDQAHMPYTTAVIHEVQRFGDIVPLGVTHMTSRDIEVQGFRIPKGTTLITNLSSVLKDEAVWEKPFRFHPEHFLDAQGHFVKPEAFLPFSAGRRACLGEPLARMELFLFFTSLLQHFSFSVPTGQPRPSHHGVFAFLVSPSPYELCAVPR
CAAX prenyl protease 2, sequence (Q9Y256 whole entry): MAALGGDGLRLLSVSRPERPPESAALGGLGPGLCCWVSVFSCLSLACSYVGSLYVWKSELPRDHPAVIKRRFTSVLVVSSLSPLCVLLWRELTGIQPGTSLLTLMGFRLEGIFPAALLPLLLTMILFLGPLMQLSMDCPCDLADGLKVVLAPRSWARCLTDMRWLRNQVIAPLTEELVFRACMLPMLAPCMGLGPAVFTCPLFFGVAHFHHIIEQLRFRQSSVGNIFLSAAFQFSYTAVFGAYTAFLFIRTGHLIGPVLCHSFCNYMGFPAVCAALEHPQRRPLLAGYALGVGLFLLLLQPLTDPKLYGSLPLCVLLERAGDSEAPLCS
Latent membrane protein 1, sequence (P03230 whole entry): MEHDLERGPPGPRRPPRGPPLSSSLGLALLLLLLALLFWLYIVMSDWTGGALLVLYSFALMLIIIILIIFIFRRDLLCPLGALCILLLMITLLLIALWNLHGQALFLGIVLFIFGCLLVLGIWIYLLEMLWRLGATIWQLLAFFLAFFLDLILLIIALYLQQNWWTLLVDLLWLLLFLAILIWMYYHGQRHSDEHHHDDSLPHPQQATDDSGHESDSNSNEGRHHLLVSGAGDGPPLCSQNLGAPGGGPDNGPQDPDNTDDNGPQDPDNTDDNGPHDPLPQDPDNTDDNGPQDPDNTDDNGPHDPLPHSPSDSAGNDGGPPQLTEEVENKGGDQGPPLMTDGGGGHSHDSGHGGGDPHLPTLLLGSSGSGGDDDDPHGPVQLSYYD

With `O=C1C2CC=CCC2C(=O)N1c1ccc(NCCc2ccccc2)c([N+](=O)[O-])c1` (centres undefined) the AC50 [1] was 0.209 µM (active), the EC50 [2] was 13.4 µM (active) and the AC50 [3] was 36.3 µM (active).

For `Cc1c(N=C2NC3(CCCCC3)Cc3ccccc32)c(=O)n(-c2ccccc2)n1C`, the AC50 [4] was > 150 µM (inactive).

For `O=[N+]([O-])c1ccc(CN2CC=C(c3ccccc3)CC2)cc1`, the AC50 [5] was 178 µM (active).

With `OCCN1CCN(C(S)=Nc2ccc(Oc3ccccc3)cc2)CC1` the AC50 [4] was 82.3 µM (active).

With `CN(C)CCCN(C(=O)c1cc(-c2cccs2)nc2ccccc12)c1nc2ccc(F)cc2s1` the EC50 [6] was > 60 µM (not active), the EC50 [7] was 12.2 µM (active) and the EC50 [8] was 8.08 µM (active). The CC50 [9] was 25.1 µM (active) and the AC50 [10] was 29 µM (active).

With `CC(C)c1onc(C(=O)N2CCN(C(c3ccccc3)c3ccccc3)CC2)c1[N+](=O)[O-]` the EC50 [11] was 0.621 µM (inconclusive), the EC50 [12] was 3.16 µM (active) and the EC50 [13] was 14.4 µM (inconclusive). The EC50 [14] was > 150 µM (not active), the EC50 [15] was 2.69 µM (active) and the EC50 [16] was 5.72 µM (active).

For `Cc1ccc(C)c(-n2c(CNC(=O)c3ccco3)nnc2SCC(=O)N2CCc3ccccc32)c1`, the IC50 [17] was > 100 µM (inactive), the Ki [18] was > 66.7 µM (inactive) and the AC50 [19] was 2.51 µM (inconclusive). The AC50 [20] was “inconclusive”.

In the case of `O=C(NCCN1CCC(n2c(=O)[nH]c3ccccc32)CC1)c1cc([N+](=O)[O-])cc([N+](=O)[O-])c1`, the IC50 [21] was 0.27 µM (active) and the IC50 [22] was 1.32 µM (active).

In the case of `O=C(NCCN1CCC(n2c(=O)[nH]c3ccccc32)CC1)Nc1cccc(F)c1`, the IC50 [21] was 0.078 µM (active) and the IC50 [22] was 2.3 µM (active).

With `COc1ccc(/C=C2\CCC/C(=C\C=N\N(C)C)C2=O)cc1` the CC50 [9] was 9.83 µM (active), the AC50 [1] was 25 µM (active) and the IC50 [23] was 50.6 µM (active). For the same molecule, the AC50 [3] was 20.8 µM (active).
